Test results from patent US20240350430A1, “GROWTH INHIBITOR OF METASTATIC HUMAN PROSTATE CANCER CELLS” (Watanabe Oyster Laboratory Co., Ltd., priority 2021, published 2024).

Tests used:
DU-145 cells = assay: Cell migration scratch assay, DU-145 cells; type: cell-based, human; conditions: DHMBA 1, 10, 100, or 1000 μM, 48 hours
Method: The migration of the prostate cancer PC-3 and DU-145 cells was examined using a scratch assay. The PC-3 and DU-145 cells (the cell number of 2×10^5/in 1 ml of a culture fluid per hole using a 24-hole plate) were cultured in a DMEM culture fluid containing 10% of FBS, 1% of P/S, and 1% of fungizone under 5% of CO2, at 37° C., for 48 hours, and a straight line scratch was performed using a pipette tip (200 μl) when the cells reached confluence. Free cells were washed with PBS to be removed, the above-described culture fluid (containing 0.1, 1, 10, 100, or 1000 μM of the DHMBA) was added, and the cells were cultured for 48 hours. After the culture, intervals of cell-free parts were measured.
The PC-3 and DU-145 cells (the cell number of 2× 10^5/1 ml of a culture fluid per hole using a 24-hole plate) were cultured under 5% of CO2, at 37° C., for 48 hours in a DMEM culture fluid containing 10% of FBS, 1% of P/S, and 1% of fungizone, and a straight line scratch was performed using a pipette tip (200 μl) when the cells reached confluence. Free cells were washed with PBS to be removed, the above-described culture fluid (containing 0.1, 1, 10, 100, or 1000 μM of the DHMBA) was added, and the cells were cultured for 48 hours. After the culture, intervals of cell-free parts were measured. […]

PC-3 cells = assay: Intracellular active oxygen (ROS) production, H2DCFDA, PC-3 cells; type: cell-based, human; conditions: DHMBA 1, 10, 100, and 1000 μM, 24 hours
Method: The intracellular active oxygen (reactive oxygen species: ROS) was measured using an ROS measurement kit (MAK144-1 Kit, Sigma-Aldrich) using pro-fluorescent substrate H2DCFDA. The PC-3 and DU-145 cells (the cell number of 2.5×10^4/per well, in 0.1 ml of a culture fluid per hole using a 96-hole plate) were cultured in a DMEM culture fluid (containing 10% of FBS, 1% of P/S, and 1% of fungizone) containing the DHMBA (0.1, 1, 10, 100, or 1000 μM) under 5% of CO2, at 37° C., for 24 hours. After the culture, the cells were washed with PBS, 0.1 ml and 25 μM of an H2DCFDA solution was added, and incubation was performed for 45 minutes. Afterwards, the cells were washed with PBS, and as the amount of active oxygen produced in the cells, fluorescence intensity was measured using a fluorescence measurement plate reader at a wavelength Ex/Em=485/535 nm.
The PC-3 and DU-145 cells (2.5×10^4/0.1 ml of a culture fluid per hole using a 96-hole plate) were cultured under 5% of CO2, at 37° C., for 24 hours in a DMEM culture fluid (containing 10% of FBS, 1% of P/S, and 1% of fungizone) containing the DHMBA (0.1, 1, 10, 100, or 1000 μM). […] After the cells were washed with PBS, a fluorescence intensity of the cells was measured using a fluorescence measurement plate reader at a wavelength Ex/Em=485/535 nm. […]

**Q.** How did the migration (DU-145 cells) turn out when `COc1c(O)cc(CO)cc1O` [DHMBA, 3,5-dihydroxy-4-methoxybenzyl alcohol] was run?
**A.** significantly inhibited

**Q.** What about the “amount of intracellular active oxygen production” value (PC-3 cells) of the same molecule?
**A.** significant inhibition
